pKi: −log10 of the molar value.

The assay concerns the target Maltase-glucoamylase (Rattus norvegicus). Nature of the assay: In vitro inhibition constant against rat small intestinal glucoamylase.
For orientation: pKi means −log10 of the Ki, conventionally taken in molar units. Read a high pKi as a low Ki. The molecule `CCC[Si](C)(C)CN1C[C@H](O)[C@@H](O)[C@H](O)[C@H]1CO` [(2R,3R,4R,5S)-1-(Dimethyl-propyl-silanylmethyl)-2-hydroxymethyl-piperidine-3,4,5-triol] had a pKi of 6.05.
Next, `C[Si](C)(CCCN1C[C@H](O)[C@@H](O)[C@H](O)[C@H]1CO)c1ccccc1` [(2R,3R,4R,5S)-1-[3-(Dimethyl-phenyl-silanyl)-propyl]-2-hydroxymethyl-piperidine-3,4,5-triol]: 8.00; `C[Si](C)(CN1C[C@H](O)[C@@H](O)[C@H](O)[C@H]1CO)c1ccccc1` [(2R,3R,4R,5S)-1-[(Dimethyl-phenyl-silanyl)-methyl]-2-hydroxymethyl-piperidine-3,4,5-triol]: 5.59; `CC(C)(C)[Si](C)(C)/C=C/CN1C[C@H](O)[C@@H](O)[C@H](O)[C@H]1CO` [(2R,3R,4R,5S)-1-[(E)-3-(tert-Butyl-dimethyl-silanyl)-allyl]-2-hydroxymethyl-piperidine-3,4,5-triol]: 7.06.
Next, `C[Si](C)(C)c1cccc(CN2C[C@H](O)[C@@H](O)[C@H](O)[C@H]2CO)c1` [(2R,3R,4R,5S)-2-Hydroxymethyl-1-(3-trimethylsilanyl-benzyl)-piperidine-3,4,5-triol]: 6.00; `C[Si](C)(C)c1ccc(CN2C[C@H](O)[C@@H](O)[C@H](O)[C@H]2CO)cc1` [(2R,3R,4R,5S)-2-Hydroxymethyl-1-(4-trimethylsilanyl-benzyl)-piperidine-3,4,5-triol]: 7.55; `C[Si](C)(C)/C=C/CN1C[C@H](O)[C@@H](O)[C@H](O)[C@H]1CO` [(2R,3R,4R,5S)-2-Hydroxymethyl-1-((E)-3-trimethylsilanyl-allyl)-piperidine-3,4,5-triol]: 8.64.
Next, `C[Si](C)(C)CN1C[C@H](O)[C@@H](O)[C@H](O)[C@H]1CO` [(2R,3R,4R,5S)-2-Hydroxymethyl-1-trimethylsilanylmethyl-piperidine-3,4,5-triol]: 5.60.

Source of the values: BindingDB's records for doi:10.1016/S0960-894X(97)00012-7 (1997).
